Consider 46 compounds from the Deep4Chem optical property database.

The data set is described as follows: solvent given as SMILES.

Each structure is given as a SMILES string.

For the setting “in Cc1ccccc1”, `Cc1cc(C)c(B(c2ccc(-c3cc4ccc5cccc6ccc(c3)c4c56)cc2)c2c(C)cc(C)cc2C)c(C)c1` displayed a fluorescence lifetime of 65 ns.

Turning to `Oc1ccccc1/C=N/c1ccccc1/N=C/c1ccccc1O`, where the note is “in CC#N”, the fluorescence lifetime came out at 0.0089 ns.

Take `O=C1O[B-]2(OC1=O)OC(c1ccc3ccccc3c1)=CC(c1ccc3ccccc3c1)=[O+]2`: the fluorescence lifetime runs as follows: (in CC#N) 4.6 ns; (in ClC(Cl)(Cl)Cl) 1.8 ns.

In the case of `COc1ccc(C(=Cc2ccc(C#N)cc2)c2ccc(OC)cc2)cc1`, under “in C1CCOC1”, the fluorescence lifetime was 6.9 ns.

Regarding `CC(=O)c1ccc2ccc3cccc4ccc1c2c34`, the fluorescence lifetime (in C1CCOC1) was 13.4 ns; the fluorescence lifetime (in CC#N) was found to be 9.47 ns; the fluorescence lifetime (in CCCCCC) was determined as 6.56 ns; the fluorescence lifetime (in CCO) stood at 0.784 ns; the fluorescence lifetime (in CN(C)C=O) was found to be 5.34 ns; the fluorescence lifetime (in CO) was determined as 0.538 ns. The fluorescence lifetime runs as follows: (in Cc1ccccc1) 2.8 ns; (in ClCCl) 4.8 ns.

Under “in O”, `Nc1ccc2ccc(O)cc2c1` showed a fluorescence lifetime of 7.69 ns.

For `F[B-]1(F)OC(c2ccc(C(F)(F)F)cc2)=Cc2ccc3ccccc3[n+]21`, under “in ClC(Cl)Cl”, the fluorescence lifetime was found to be 0.92 ns.

The compound `CN(C)c1ccc2cc3ccc(=[N+](C)C)cc-3oc2c1` gave a fluorescence lifetime (in CCO) of 2.26 ns and a fluorescence lifetime (in O) of 1.86 ns.

Where the note is “in CC#N”, `COc1ccc2cc(/C=C/c3ccc([N+](=O)[O-])cc3)c(=O)oc2c1` yielded a fluorescence lifetime of 1.23 ns.

As to `CCCN1C(=O)C(=CC=CC=C2Oc3ccccc3N2CCCS(=O)(=O)[O-])C(=O)N(CCC)C1=S`, the fluorescence lifetime is, setting by setting: (in CC(C)=O) 0.854 ns; (in CCCCO) 0.821 ns; (in CCO) 0.465 ns; (in CO) 0.288 ns; (in ClC(Cl)Cl) 0.712 ns.

With `CCCCCCOc1ccc(N(c2ccc(OCCCCCC)cc2)c2ccc(-c3sc(-c4ccc(N(c5ccc(OCCCCCC)cc5)c5ccc(OCCCCCC)cc5)cc4)c4nc(CC)c(CC)nc34)cc2)cc1`, the fluorescence lifetime came out at 0.92 ns (in CN(C)C=O) and 1.09 ns (in ClC(Cl)Cl).

Turning to `COc1cc(OC)c2cc(-c3ccccc3CC#N)c(=O)oc2c1`, the fluorescence lifetime (in ClC(Cl)Cl) is 2.8 ns.

As for `C[N+]1=c2cc3c(cc2C(C)(C)CC1)=C(c1ccccc1C(=O)O)c1cc2c(cc1O3)Oc1cc3c(cc1=C2c1ccccc1C(=O)O)C(C)(C)CC[N+]=3C`, the fluorescence lifetime (in ClC(Cl)Cl) stood at 2.34 ns.

For `CCN1\C(=C/C=C/C=C/C2=[N+](CC)c3ccc4ccccc4c3C2(C)C)C(C)(C)c2c1ccc1ccccc21`, the fluorescence lifetime runs as follows: (in C1CCOC1) 1.11 ns; (in CC#N) 0.85 ns; (in CC(C)=O) 0.96 ns; (in CCO) 0.93 ns; (in CN(C)C=O) 1.19 ns; (in CO) 0.76 ns. Also, the fluorescence lifetime runs as follows: (in CS(C)=O) 1.31 ns; (in ClCCl) 1.3 ns.

`Cc1nc2c(ccc3ccc(O)cc32)oc1=O` showed a fluorescence lifetime (in c1ccccc1) of 3.9 ns.

Take `Cn1c(=O)cc(C(=O)c2ccccc2)c2sc(-c3ccc(OC(F)(F)F)cc3)cc21`: for the setting “in ClCCl”, the fluorescence lifetime came out at 4.77 ns.

Regarding `Cc1cc(-n2c3ccccc3c3cc4c(cc32)C2c3ccccc3C4c3ccccc32)c(C)cc1-c1nc(-c2ccccc2)nc(-c2ccccc2)n1`, the fluorescence lifetime (in O=P(c1ccccc1)(c1ccccc1)c1ccccc1Oc1ccccc1P(=O)(c1ccccc1)c1ccccc1) was 10.5 ns.

`c1ccc(-c2nc(-c3ccccc3)nc(-c3ccc(-n4c5ccccc5c5cc6c(cc54)c4ccccc4n6-c4ccccc4)cc3)n2)cc1` registered a fluorescence lifetime (in O=P(c1ccccc1)(c1ccccc1)c1ccc2oc3ccc(P(=O)(c4ccccc4)c4ccccc4)cc3c2c1) of 13.4 ns.

`CCN(CC)c1ccc2c(c1)oc(=O)c1cc3c(C)nn(-c4ccccc4)c3nc12` returned a fluorescence lifetime (in ClCCl) of 17.1 ns.

Regarding `O=C(O)c1ccc(-c2nc(-c3ccccc3)c3c4ccccc4ccn23)cc1`, under “in CC#N”, the fluorescence lifetime was 2.5 ns.

Compound `C[n+]1ccn(CCCCc2ccc3c(c2)c2ccccc2n3-c2cc(C#N)c(C#N)cc2F)c1` showed a fluorescence lifetime (in CC#N) of 3.26 ns.

Turning to `N#CC1=c2c3cccc4c(Br)ccc(c43)n2[B-](F)(F)[n+]2ccccc21`, the fluorescence lifetime (in ClCCl) came out at 7.8 ns.

`Cc1csc(C)c1C1=C(c2c(C)sc(-c3ccc(-c4nc(-c5ccccc5)c(-c5ccccc5)[nH]4)cc3)c2C)C(F)(F)C(F)(F)C1(F)F`: the fluorescence lifetime (in C1CCOC1) was found to be 0.42 ns.

As for `CCn1c2ccccc2c2cc(C#Cc3cc(C#Cc4ccc5c(c4)c4ccccc4n5CC)nc(C#N)n3)ccc21`, the fluorescence lifetime (in C1CCOC1) worked out at 4.26 ns.

`CC1(C)[C@@H]2[C@@H]1[C@]1(c3ccccc3)N=NC2(c2ccccc2)C2C3C=CC(C3)C21` (stereo partly drawn) had a fluorescence lifetime (in CC#N) of 402 ns.

Compound `Nc1cccc2cc3ccccc3cc12` showed a fluorescence lifetime (in C1CCCCC1) of 29 ns.

`CC[B-]1(CC)c2cccc3c4c5c(cccc5c(c23)-c2cccc(C)[n+]21)[B-](CC)(CC)[n+]1c(C)cccc1-4` registered a fluorescence lifetime (in ClCCl) of 11.1 ns.

Turning to `CCN(CC)c1ccc2c(-c3ccccc3C(=O)O)c3c([o+]c2c1)/C(=C/Nc1ccccc1)CCC3`, the fluorescence lifetime is 5.19 ns (in CCO), 3.16 ns (in ClC(Cl)Cl) and 5.8 ns (in ClCCl).

As for `CCOC(=O)c1ccc2c(c1)sc1c3ccc(C(=O)OCC)cc3n(C)c21`, the fluorescence lifetime (in CCCO) came out at 3.9 ns.

Where the note is “in O”, `N[C@@H](Cc1ccc(O)cc1)C(=O)O` registered a fluorescence lifetime of 3.27 ns.

Turning to `N#Cc1c2ccccc2cc2ccccc12`, the fluorescence lifetime by setting is: (in C1CCCCC1) 12.7 ns; (in CO) 16 ns.

For the compound `COC(=O)C(NC(=O)OC(C)(C)C)c1ccc2oc(-c3ccc(OC(=O)c4ccccc4)cc3O)nc2c1` (stereo not drawn), the fluorescence lifetime runs as follows: (in CC1CCCCC1) 0.64 ns; (in CC#N) 0.3 ns; (in CO) 0.027 ns.

Under “in ClC(Cl)Cl”, `Cc1ccc(-c2oc3cccc4c5c(-c6ccc(C)cc6)/c(=N/S(=O)(=O)C(F)(F)F)oc6cccc(c2c34)c65)cc1` came in with a fluorescence lifetime of 5.4 ns.

Compound `COC(=O)c1cc(=O)n(C)c2cc(-c3ccc(N4CCN(C)CC4)cc3)sc12` showed a fluorescence lifetime (in ClCCl) of 1.5 ns.

For `CCOC(=O)CCCCCn1c2ccc(N)cc2c(=O)c2cc(N)ccc21`, the fluorescence lifetime (in O) came out at 11.5 ns.

On to `COc1ccc2nc3c(nc2c1)c(-c1ccccc1)nn3C`, for which the fluorescence lifetime was 5.37 ns (in C1CCCCC1), 12.4 ns (in C1CCOC1) and 16.7 ns (in CC#N).

For the compound `CN(C)c1ccc(C2=Cc3c4ccccc4c4ccccc4[n+]3[B-](F)(F)O2)cc1`, the fluorescence lifetime (in ClC(Cl)Cl) worked out at 2.6 ns.

In the case of `N#C/C=C/c1ccc2ccc3cccc4ccc1c2c34`, the fluorescence lifetime (in C1CCOC1) amounted to 3.2 ns, the fluorescence lifetime (in CC#N) came out at 3 ns and the fluorescence lifetime (in CC(C)=O) is 3.1 ns.

Consider `COc1ccc(C2=C3C(C)=CC(C)=[N+]3[B-](F)(F)n3c(/C=C/c4ccc(N(C)C)cc4)cc(C)c32)cc1`, for which the fluorescence lifetime stood at 3.5 ns (in C1CCCCC1); 3 ns (in C1CCOC1); 3.43 ns (in C1COCCO1); 1.2 ns (in CC#N); 2.23 ns (in CC(C)=O); 1.84 ns (in CCC#N). In addition, the fluorescence lifetime reads like this: (in CCCC#N) 2.26 ns; (in CCCCO) 2.45 ns; (in CCOC(C)=O) 3.31 ns; (in CCOCC) 3.74 ns; (in CO) 0.85 ns; (in Cc1ccccc1) 3.25 ns. Besides, the fluorescence lifetime (in ClC(Cl)Cl) is 3.47 ns.

`COc1nc(Cl)nc(Nc2ccc3c4cccc5cccc(c6cccc2c63)c54)n1`: the fluorescence lifetime amounted to 3.5 ns (in CCOC(C)=O) and 4 ns (in CS(C)=O).

Consider `Cc1ccc(C(=O)NN2C3=C(CC4=C2CCCC4=O)C(=O)CCC3)cc1`, for which the fluorescence lifetime turned out to be 4.1 ns (in C1CCOC1); 5.9 ns (in CC#N); 5.1 ns (in CC(C)=O); 5.9 ns (in CCCCCO); 4.6 ns (in CO); 7.9 ns (in ClC(Cl)Cl). The fluorescence lifetime (in ClCCl) turned out to be 5.3 ns.

Under “in C1CCOC1”, `CC(C)(C)[Si](C)(C)C#CC1=CC2=c3cc(C#C[Si](C)(C)C(C)(C)C)c4nc(C(F)(F)C(F)(F)C(F)(F)F)nc5c(C#C[Si](C)(C)C(C)(C)C)cc(c3c54)C3=CC(C#C[Si](C)(C)C(C)(C)C)=C4N=C(C(F)(F)C(F)(F)C(F)(F)F)N=C1C4C32` (stereo not drawn) came in with a fluorescence lifetime of 2.1 ns.

As for `CCCCc1cc(CCCC)c2ccc3c(CCCC)cc(CCCC)c4ccc1c2c43`, the fluorescence lifetime by setting is: (in CCCCCC) 65.8 ns; (in CO) 75 ns; (in ClCCl) 56.7 ns.

Take `CN(C)c1ccc(-c2nc(C#N)c(C#N)n2C)cc1`: the fluorescence lifetime runs as follows: (in C1CCCCC1) 1.3 ns; (in ClC(Cl)Cl) 3.5 ns.

On to `N#Cc1cccc2cc[nH]c12`, for which the fluorescence lifetime reads like this: (in C1CCOC1) 6.9 ns; (in C1COCCO1) 7.5 ns; (in CC#N) 8 ns; (in CC(C)O) 9 ns; (in CCO) 8.7 ns; (in CO) 8.2 ns. This compound came in with a fluorescence lifetime (in CS(C)=O) of 14.5 ns; a fluorescence lifetime (in NC=O) of 15.7 ns; a fluorescence lifetime (in O) of 2 ns; a fluorescence lifetime (in OCC(F)(F)F) of 1.2 ns; a fluorescence lifetime (in [2H]O[2H]) of 2.3 ns.

With `c1ccn(-c2ccc(-c3cc(-c4ccc(-n5cccc5)cc4)cc(-c4ccc(-n5cccc5)cc4)c3)cc2)c1`, the fluorescence lifetime (in ClCCl) worked out at 2.98 ns.
